# Measured values: patent publication US11136311B2, “Heteroaromatic derivatives as NIK inhibitors” (Janssen Pharmaceutica NV, priority 2016, dated 2021)
# What was measured:
# [1] = test system: JJN-3 cells; experiment: Antiproliferative activity on JJN-3 (NIK translocated) multiple myeloma cells (CellTiter-Glo); format: cell-based, human; conditions: Homo sapiens, JJN-3, 96 h, JJN-3 (NIK translocated) cells, 96 hr; averaged values; read-out: JJN-3 Proliferation inhibition (IC50 (nM))
# How it was run: (§1)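 Viability was read by CellTiter-Glo after 96 hr compound exposure (9-point, 1:3 serial dilutions; 0.3% DMSO final). JJN-3 and KMS12-BM cells were seeded at 15000 and 20000 per well respectively in RPMI 1640/10% FCS; blank-subtracted signals were given as percent of drug-free controls.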
# [2] = molecular target: recombinant human NF-kappaB-inducing kinase (NIK/MAP3K14) (Homo sapiens (Human), UniProt Q99558); experiment: Inhibition of auto-phosphorylation of recombinant human NIK/MAP3K14 activity (AlphaScreen); format: biochemical; conditions: averaged values over all measurements on all batches
# How it was run: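 AlphaScreen read-out, using anti-phospho-IKK Ser176/180 antibody, tracked NIK autophosphorylation after 1 h at 25° C. Reactions held 0.2 nM GST-NIK, 25 microM ATP and compound in 1% DMSO, Tris pH 7.5 buffer. IC50 fitted sigmoidally to blank-subtracted inhibition data.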
# [3] = test system: KMS12-BM cells; experiment: Antiproliferative activity on KMS12-BM (NIK WT) multiple myeloma cells (CellTiter-Glo); format: cell-based, human; conditions: Homo sapiens, KMS-12-BM, 96 h, KMS12-BM (NIK WT) cells, 96 hr; averaged values; read-out: KMS-12 Proliferation inhibition (IC50 (nM))
# How it was run: as §1
# [4] = test system: P-IKKα levels in L363 cells; experiment: Effect of compounds on P-IKKα levels in L363 (NIK translocated multiple myeloma) cells; format: cell-based, human; conditions: Homo sapiens, L-363, L363 cells; averaged values; read-out: Inhibition of pIKKα_L-363 (IC50 (nM))
# Experimental: Effect of compounds on P-IKKα levels in L363 (NIK translocated multiple myeloma) cells
# All compounds tested were dissolved in DMSO and further dilutions were made in culture medium. Final DMSO concentration was 1% (v/v) in cell assays. The human L363 cells (ATCC) were cultured in RPMI 1640 medium supplemented with GlutaMax and 10% fetal calf serum (PAA). Cells were routinely maintained at densities of 0.2×10^6 cells per ml-1×10^6 cells per ml at 37° C. in a humidified 5% CO2 atmosphere. Cells were passaged twice a week splitting back to obtain the low density. Cells were seeded in 96 well plates (Nunc 167008) at 2×10^6 per ml media in a volume of 75 μl per well plus 25 μl 1 μg/ml recombinant human B-cell activating factor (BAFF/BLyS/TNFSF13B). Seeded cells were incubated at 37° C. in a humidified 5% CO2 atmosphere for 24 hr. Drugs and/or solvents were added (20 μl) to a final volume of 120 μl. Following 2 hr treatment plates were removed from the incubator and cell lysis was achieved by the addition of 30 μl 5× lysis buffer followed by shaking on a plate shaker at 4° C. for 10 min. At the end of this incubation lysed cells were centrifuged at 800×g for 20 min at 4° C. and the lysate was assessed for P-IKKα levels by sandwich immuno-assay carried out in anti-rabbit antibody coated Mesoscale plates. Within an experiment, the results for each treatment were the mean of 2 replicate wells. For initial screening purposes, compounds were tested using an 8 point dilution curve (serial 1:3 dilutions). For each experiment, controls (containing MG132 and BAFF but no test drug) and a blank incubation (containing MG132 and BAFF and 10 μM ADS125117, a test concentration known to give full inhibition) were run in parallel. The blank incubation value was subtracted from all control and sample values. To determine the IC50 a sigmoidal curve was fitted to the plot of % inhibition of control P-IKKα levels versus Log10 compound concentration.
# recombinant human NF-kappaB-inducing kinase (NIK/MAP3K14), sequence (Q99558 whole entry): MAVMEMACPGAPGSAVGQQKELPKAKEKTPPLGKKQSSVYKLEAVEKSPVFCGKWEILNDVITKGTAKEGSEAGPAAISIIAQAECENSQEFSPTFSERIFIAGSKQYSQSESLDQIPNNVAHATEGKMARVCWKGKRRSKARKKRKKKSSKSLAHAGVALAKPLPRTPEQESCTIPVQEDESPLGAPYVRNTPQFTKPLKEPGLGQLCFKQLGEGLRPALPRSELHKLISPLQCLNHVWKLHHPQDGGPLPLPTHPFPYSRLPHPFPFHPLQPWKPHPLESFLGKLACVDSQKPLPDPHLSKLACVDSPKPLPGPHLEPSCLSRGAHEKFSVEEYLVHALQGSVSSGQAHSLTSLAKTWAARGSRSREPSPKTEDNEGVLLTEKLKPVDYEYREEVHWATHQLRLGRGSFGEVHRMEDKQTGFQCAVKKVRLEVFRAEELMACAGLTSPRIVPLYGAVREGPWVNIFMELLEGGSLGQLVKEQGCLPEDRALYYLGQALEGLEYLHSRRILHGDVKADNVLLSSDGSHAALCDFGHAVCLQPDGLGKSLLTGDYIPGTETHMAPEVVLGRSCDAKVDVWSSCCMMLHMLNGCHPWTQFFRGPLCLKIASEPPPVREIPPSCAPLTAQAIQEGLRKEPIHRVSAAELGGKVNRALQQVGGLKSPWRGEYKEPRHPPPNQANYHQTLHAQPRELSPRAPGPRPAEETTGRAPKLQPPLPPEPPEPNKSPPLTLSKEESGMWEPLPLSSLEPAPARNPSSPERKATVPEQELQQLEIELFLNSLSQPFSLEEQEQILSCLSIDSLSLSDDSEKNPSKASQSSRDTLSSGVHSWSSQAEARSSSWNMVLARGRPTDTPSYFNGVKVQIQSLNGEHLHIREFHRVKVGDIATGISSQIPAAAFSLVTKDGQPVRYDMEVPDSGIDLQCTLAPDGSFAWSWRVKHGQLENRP
Compound,IC50 [1],IC50 [2],IC50 [3],IC50 [4]
Cc1c(Nc2nccc(-c3cc(C#N)c4c(c3)[C@@](C)(CO)CN4)n2)cnn1C1CCOCC1 [Compound 72],102 nM,2.9 nM,724 nM,3 nM
C=CCn1nc(C)cc1Nc1nccc(-c2cc(C#N)c3c(c2)[C@@](C)(CO)CN3)n1 [Compound 73],195 nM,1.9 nM,1320 nM,2 nM
Cc1c(Nc2nccc(-c3cc(C#N)c4c(c3)[C@@](C)(CO)CN4)n2)cnn1CC1CCOCC1 [Compound 76],141 nM,1.2 nM,741 nM,2 nM
Cc1cc(Nc2nccc(-c3cc(C#N)c4c(c3)[C@@](C)(CO)CN4)n2)n(CC2CCN(C)CC2)n1 [Compound 83],111 nM,10 nM,148 nM,514 nM
CN(C)C(=O)c1cc(Nc2nccc(-c3cc(C#N)c4c(c3)C(C)(CO)CN4)n2)n(C)n1 (stereo not shown) [Compound 86],871 nM,2.6 nM,~3720 nM,15 nM
Cc1cc(Nc2nccc(-c3cc(C#N)c4c(c3)[C@@](C)(CO)CN4)n2)n(CC(=O)N2CC(F)(F)C2)n1 [Compound 87],3240 nM,~6.5 nM,> 10000 nM,34 nM
Cc1cc(Nc2nccc(-c3cc(C#N)c4c(c3)[C@@](C)(CO)CN4)n2)n(CC(=O)N2CCCC2)n1 [Compound 88],2140 nM,6.8 nM,> 10000 nM,9 nM
Cc1cc(Nc2nccc(-c3cc(C#N)c4c(c3)[C@@](C)(CO)CN4)n2)n(CC(=O)N(C)C2CC2)n1 [Compound 89],427 nM,3.7 nM,> 10000 nM,~85 nM
CC(C)n1nc(C2CCOCC2)cc1Nc1cc(-c2cc(C#N)c3c(c2)[C@@](C)(CO)CN3)ncn1 [Compound 91],324 nM,5.5 nM,> 10000 nM,13 nM
Cc1cc(Nc2nccc(-c3cc(C#N)c4c(c3)[C@@](C)(CO)CN4)n2)n(CCCO)n1 [Compound 92],~224 nM,3.5 nM,1510 nM,7 nM
Cc1cc(Nc2nccc(-c3cc(C#N)c4c(c3)[C@@](C)(CO)CN4)n2)nn1CCC1CC1 [Compound 95],100 nM,1.6 nM,871 nM,4 nM
Cc1cc(Nc2nccc(-c3cc(C#N)c4c(c3)[C@@](C)(CO)CN4)n2)n(CCC2CC2)n1 [Compound 96],76 nM,1.6 nM,3800 nM,12 nM
CNC(=O)c1cc(Nc2nccc(-c3cc(C#N)c4c(c3)[C@@](C)(CO)CN4)n2)nn1C(C)C [Compound 103],71 nM,2.6 nM,3020 nM,4 nM
Cc1cc(Nc2nccc(-c3cc(C#N)c4c(c3)[C@@](C)(CO)CN4)n2)nn1CCC(C)(C)O [Compound 109],50 nM,3.6 nM,468 nM,11 nM
Cc1cc(Nc2nccc(-c3cc(C#N)c4c(c3)[C@@](C)(CO)CN4)n2)n(CC2(C)COC2)n1 [Compound 111],355 nM,9.3 nM,5130 nM,~331 nM
COCCCn1nc(Cl)cc1Nc1nccc(-c2cc(C#N)c3c(c2)[C@@](C)(CO)CN3)n1 [Compound 112],69 nM,2.9 nM,8910 nM,13 nM
C[C@]1(CO)CNc2c(C#N)cc(-c3ccnc(Nc4cc(Cl)nn4C[C@@H]4CCCO4)n3)cc21 [Compound 113],69 nM,6.2 nM,3020 nM,42 nM
C[C@]1(CO)CNc2c(C#N)cc(-c3ccnc(Nc4cc(Cl)nn4C[C@H]4CCCO4)n3)cc21 [Compound 114],151 nM,6 nM,1070 nM,30 nM
C[C@]1(CO)CNc2c(C#N)cc(-c3ccnc(Nc4cc(Cl)nn4CCC4CC4)n3)cc21 [Compound 115],62 nM,4.6 nM,4270 nM,10 nM
CC(C)CCc1c(Nc2nccc(-c3cc(C#N)c4c(c3)[C@@](C)(CO)CN4)n2)cnn1Cc1nccn1C [Compound 117],269 nM,6 nM,> 10000 nM,11 nM
CN(C(=O)Cn1nc(Cl)cc1Nc1nccc(-c2cc(C#N)c3c(c2)[C@@](C)(CO)CN3)n1)C1CC1 [Compound 118],447 nM,4 nM,> 10000 nM,33 nM
CC(C)CCc1c(Nc2nccc(-c3cc(C#N)c4c(c3)[C@@](C)(CO)CN4)n2)cnn1Cc1cncn1C [Compound 120],126 nM,~29 nM,5010 nM,3 nM

# The remaining lines, values ahead:
IC50 [1],IC50 [2],IC50 [3],IC50 [4],Compound
182 nM,11 nM,457 nM,37 nM,CC(C)CCn1nc(C#N)cc1Nc1nccc(-c2cc(C#N)c3c(c2)[C@@](C)(CO)CN3)n1 [Compound 93]
309 nM,2 nM,> 10000 nM,2 nM,CC(C)Cc1nn(C)cc1Nc1nccc(-c2cc(C#N)c3c(c2)[C@@](C)(CO)CN3)n1 [Compound 97]
1020 nM,2 nM,> 10000 nM,5 nM,CC(C)Cc1c(Nc2nccc(-c3cc(C#N)c4c(c3)[C@@](C)(CO)CN4)n2)cnn1C [Compound 98]
288 nM,2.9 nM,9770 nM,3 nM,CC(C)CCc1c(Nc2nccc(-c3cc(C#N)c4c(c3)[C@@](C)(CO)CN4)n2)cnn1C [Compound 99]
54 nM,2.1 nM,> 10000 nM,~15 nM,CC(C)CCc1nn(C)cc1Nc1nccc(-c2cc(C#N)c3c(c2)[C@@](C)(CO)CN3)n1 [Compound 100]
1510 nM,6 nM,5250 nM,234 nM,CC(C)CCc1nn(CCN(C)C)cc1Nc1nccc(-c2cc(C#N)c3c(c2)[C@@](C)(CO)CN3)n1 [Compound 101]
117 nM,3.4 nM,> 10000 nM,15 nM,COCCCn1ncc(Nc2nccc(-c3cc(C#N)c4c(c3)[C@@](C)(CO)CN4)n2)c1CCC(C)C [Compound 104]
447 nM,5.5 nM,> 10000 nM,20 nM,COCCCn1cc(Nc2nccc(-c3cc(C#N)c4c(c3)[C@@](C)(CO)CN4)n2)c(CCC(C)C)n1 [Compound 105]
55 nM,3.8 nM,1350 nM,9 nM,CC(C)Cn1nc(Cl)cc1Nc1nccc(-c2cc(C#N)c3c(c2)[C@@](C)(CO)CN3)n1 [Compound 107]
~724 nM,4.1 nM,~3160 nM,14 nM,Cc1cc(Nc2nccc(-c3cc(C#N)c4c(c3)[C@@](C)(CO)CN4)n2)n(CCC(C)(C)O)n1 [Compound 108]
138 nM,3 nM,2040 nM,4 nM,CC(C)CCn1nc(CO)cc1Nc1nccc(-c2cc(C#N)c3c(c2)[C@@](C)(CO)CN3)n1 [Compound 110]
3160 nM,9.6 nM,> 10000 nM,43 nM,CC(C)Cn1nc(P(C)(C)=O)cc1Nc1nccc(-c2cc(C#N)c3c(c2)[C@@](C)(CO)CN3)n1 [Compound 119]
